From patent publication US7351728B2, “Oxazolyl-aryloxyacetic acid derivatives and their use as PPAR agonists” (Eli Lilly and Company, priority 2003, dated 2008)

How the values were obtained:
HuapoAI transgenic mice = assay: Evaluation of triglyceride and cholesterol level in HuapoAI transgenic mice; format: in vivo; conditions: Mus musculus, 168 h, 30 mg/kg daily oral gavage 7 days
Procedure: Five to six week old male mice, transgenic for human apoAI [C57Bl/6-tgn(apoa1)lrub, Jackson Laboratory, Bar Harbor, Me.] were housed five per cage (10″×20″×8″ with aspen chip bedding) with food (Purina 5001) and water available at all times. After an acclimation period of 2 weeks, animals were individually identified by ear notches, weighed, and assigned to groups based on body weight. Beginning the following morning, mice were dosed daily by oral gavage for 7 days using a 20 gauge, 1½″ curved disposable feeding needle (Popper & Sons). Treatments were test compounds (30 mg/kg), a positive control (fenofibrate, 100 mg/kg) or vehicle [1% carboxymethylcellulose (w/v)/0.25% Tween80 (w/v); 0.2 ml/mouse]. Prior to termination on day 7, mice were weighed and dosed. Three hours after dosing, animals were anesthetized by inhalation of isoflurane (2-4%; Abbott Laboratories, Chicago, Ill.) and blood obtained via cardiac puncture (0.7-1.0 ml). Whole blood was transferred to serum separator tubes (Vacutainer SST), chilled on ice, and permitted to clot. Serum was obtained after centrifugation at 4° C. and frozen until analysis for triglycerides, total cholesterol, compound levels, and serum lipoprotein profile by fast protein liquid chromatography (FPLC) coupled to an inline detection system. After sacrifice by cervical dislocation, the liver, heart and epididymal fat pads were excised and weighed.
The animals dosed with vehicle had average triglycerides values of 60-80 mg/dl, which were reduced by the positive control fenofibrate (33-58 mg/dl with a mean reduction of 37%). The animals dosed with vehicle had average total serum cholesterol values of 140-180 mg/dl, which were increased by fenofibrate (190-280 mg/dl, with a mean elevation of 41%). […] Fenofibrate increased the amount of HDLc (68-96 v-sec with a mean percent increase of 48%).
Glucose was measured colorimetrically using commercially purchased reagents (Sigma #315-500). According to the manufacturers, the procedures were modified from published work (McGowan, M. W., Artiss, J. D., Strandbergh, D. R. & Zak, B. Clin Chem, 20:470-5 (1974) and Keston, A. Specific colorimetric enzymatic analytical reagents for glucose. Abstract of papers 129th Meeting ACS, 31C (1956).); and depend on the release of a mole of hydrogen peroxide for each mole of analyte, coupled with a color reaction first described by Trinder (Trinder, P. Determination of glucose in blood using glucose oxidase with an alternative oxygen acceptor. Ann Clin Biochem, 6:24 (1969)). The absorbance of the dye produced is linearly related to the analyte in the sample. The assays were further modified in our laboratory for use in a 96 well format. Standards (Sigma #339-11, Sigma #16-11, and Sigma #CC0534 for glucose triglycerides and total cholesterol, respectively), quality control plasma (Sigma # A2034), and samples (2 or 5 μl/well) were measured in duplicate using 200 μl of reagent. An additional aliquot of sample, pipetted to a third well and diluted in 200 μl water, provided a blank for each specimen. Plates were incubated at room temperature (18, 15, and 10 minutes for glucose, triglycerides and total cholesterol, respectively) on a plate shaker (DPC Micormix 5) and absorbance read at 500 nm (glucose and total cholesterol) or 540 nm (triglycerides) on a plate reader (Wallac Victor 1420). Sample absorbances were compared to a standard curve (100-800, 10-500, and 100-400 mg/dl for glucose, triglycerides and total cholesterol, respectively). Values for the quality control sample were always within the expected range and the coefficient of variation for samples was below 10%. All samples from an experiment were assayed at the same time to minimize inter-assay variability.
Serum lipoproteins were separated and cholesterol quantitated with an in-line detection system. Sample was applied to a Superose® 6 HR 10/30 size exclusion column (Amersham Pharmacia Biotech) and eluted with phosphate buffered saline-EDTA at 0.5 ml/min. […]

Row | SMILES | change in vivo at 30 mg/kg (HuapoAI transgenic mice; percent increase in FPLC HDLc area under the curve) | inhibition in vivo at 30 mg/kg (HuapoAI transgenic mice; serum, male human apoAI transgenic mice, read-out: % Triglyceride Reduction) | melting point
1 | CC(C)(Oc1ccc(OCCc2coc(-c3ccccc3)n2)cc1)C(=O)[O-].[Na+] [Example 3, Sodium 2-methyl-2-{4-[2-(2-phenyloxazol-4-yl)ethoxy]phenoxy}propionate] | 63% | 66% | 199 to 200 °C
2 | Cc1oc(-c2ccc(C(N)=O)cc2)nc1CCOc1ccc(OC(C)(C)C(=O)O)cc1 [Example 14, 2-(4-{2-[2-(4-Carbamoylphenyl)-5-methyloxazol-4-yl]ethoxy}phenoxy)-2-methylpropionic acid] |  |  | 126 to 127 °C
3 | C#Cc1ccc(-c2nc(CCOc3ccc(OC(C)(C)C(=O)O)cc3)c(C)o2)cc1 [Example 11, 2-(4-{2-[2-(4-Ethynylphenyl)-5-methyloxazol-4-yl]ethoxy}phenoxy)-2-methylpropionic acid] |  |  | 137 to 139 °C
4 | Cc1oc(-c2ccccc2)nc1CCOc1cccc(OC(C)(C)C(=O)O)c1 [Example 23, 2-methyl-2-{3-[2-(5-methyl-2-phenyloxazol-4-yl)ethoxy]phenoxy}propionic acid] |  |  | 140 to 141 °C
5 | Cc1sc(-c2ccccc2)nc1CCOc1ccc(OC(C)(C)C(=O)O)cc1 [Example 35, 2-Methyl-2-{4-[2-(5-methyl-2-phenyl-thiazol-4-yl)-ethoxy]phenoxy}-2-methyl-propionic acid] |  |  | 163.5 °C
6 | Cc1cc(OCCc2nc(-c3ccccc3)oc2C)ccc1OCC(=O)O [Example 25, {2-Methyl-4-[2-(5-methyl-2-phenyloxazol-4-yl)ethoxy]phenoxy}acetic acid] |  |  | 133 °C
7 | C=Cc1cccc(-c2nc(CCOc3ccc(OC(C)(C)C(=O)O)cc3)c(C)o2)c1 [Example 10A, 2-Methyl-2-(4-{2-[5-methyl-2-(3-vinylphenyl)oxazol-4-yl]ethoxy}phenoxy)propionic acid] |  |  | 137 to 139 °C
